Assay results: paper PMC6337594 (2018)

Tests used:
[1] = tested on: biotinylated Tel48 (DNA, G4) TTAGGGTTAGGGTTAGGGTTAGGGTTAGGGTTAGGGTTAGGGTTAGGG; test: bio-layer interferometry, kinetic; conditions: 100 mM K+; 10 mM Tris, 25 °C; two-site model, Kb = ka/kd; immobilised Tel48
[2] = tested on: Tel48 (DNA, G4) TTAGGGTTAGGGTTAGGGTTAGGGTTAGGGTTAGGGTTAGGGTTAGGG; test: CD, ligand-induced G4 formation; conditions: no K+; Tris buffer, 25 °C; 4 µM Tel48, 8 µM compound
[3] = tested on: CMA (DNA, G4) TAGGGAGGGTAGGGAGGGT; test: gel mobility shift; conditions: 100 mM K+; 40 µM CMA, 80 µM compound
[4] = tested on: LD12 (DNA, duplex) GCGCAATTGCGC; test: fluorescence enhancement; pre-stained gel; conditions: 100 mM K+; 15 µM H33258, 15 µM LD12
[5] = tested on: Tel48 (DNA, G4) TTAGGGTTAGGGTTAGGGTTAGGGTTAGGGTTAGGGTTAGGGTTAGGG; test: CD melting; conditions: 100 mM K+; 10 mM Tris-HCl pH 7.5; compound concentration not stated

Row | Kb [1] [M⁻¹] | binding [2] | binding [3] | dTm [5] | SMILES | binding [4]
1 | 9.84e+06 | yes | yes |  | CN(C)c1ccc(Nc2c3ccc(NC(=O)CCN4CCCC4)cc3nc3cc(NC(=O)CCN4CCCC4)ccc23)cc1 | 
2 |  | yes |  | ~ 2 °C | NCCOc1cc(C(=O)Nc2cc(OCCN)c3ccccc3n2)nc(C(=O)Nc2cc(OCCN)c3ccccc3n2)c1 | 

Further lines, the molecule ahead of its results:

Row | SMILES | Kb [1] [M⁻¹] | binding [2] | binding [3] | dTm [5] | binding [4]
3 | CN1CCN(c2ccc3nc(-c4ccc5nc(-c6ccc(O)cc6)[nH]c5c4)[nH]c3c2)CC1 |  |  |  | ~ 4 °C | yes
4 | C[n+]1ccc(-c2c3nc(c(-c4cc[n+](C)cc4)c4ccc([nH]4)c(-c4cc[n+](C)cc4)c4nc(c(-c5cc[n+](C)cc5)c5ccc2[nH]5)C=C4)C=C3)cc1 | 1.55e+07 | yes | yes | ~ 10 °C | 
5 | C[n+]1ccccc1/C=C/c1ccc2[nH]c3ccc(/C=C/c4cccc[n+]4C)cc3c2c1 | 2.38e+06 | yes | yes |  | 
6 | C[n+]1ccnc(/C=C/c2ccc3[nH]c4ccc(/C=C/c5c[n+](C)ccn5)cc4c3c2)c1 | 529000 |  | yes |  | 
